Measurements taken from ChEMBL document CHEMBL1125902, “2-aralkoxyadenosines: potent and selective agonists at the coronary artery A2 adenosine receptor” (J Med Chem, 1991).

How the values were obtained:
Adenosine receptor A1 [1] = target: T1, Adenosine receptor A1 (Cavia porcellus, UniProt P47745); assay: Effective concentration required for prolongation of the stimulus-QRS interval by 50% of the maximum response at the Adenosine A1 receptor in langendorff guinea pig heart preparation; format: functional
T1 sequence (P47745 whole entry): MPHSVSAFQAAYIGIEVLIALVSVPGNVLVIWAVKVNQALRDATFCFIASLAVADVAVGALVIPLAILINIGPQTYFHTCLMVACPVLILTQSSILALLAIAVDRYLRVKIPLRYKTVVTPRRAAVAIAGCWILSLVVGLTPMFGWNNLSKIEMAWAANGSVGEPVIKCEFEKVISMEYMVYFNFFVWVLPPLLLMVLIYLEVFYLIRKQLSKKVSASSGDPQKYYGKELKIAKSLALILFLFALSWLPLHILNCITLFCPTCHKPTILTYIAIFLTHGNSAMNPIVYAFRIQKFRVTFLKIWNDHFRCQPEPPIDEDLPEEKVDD

Adenosine receptor A1 [2] = target: T1, Adenosine receptor A1; assay: Effective concentration required for prolongation of the stimulus-QRS interval by 50% of the maximum response at the A1 adenosine receptor in langendorff guinea pig heart preparation; format: functional
Adenosine A2 receptor [3] = target: T2, Adenosine A2 receptor (Homo sapiens, UniProt P29275+P29274)
Description: Concentration required for coronary arteries vasodilation at the A2 adenosine receptor in langendorff guinea pig heart preparation

Adenosine A2 receptor [4] = target: T2, Adenosine A2 receptor; remark: listed apart in the source
Description: Concentration required for coronary arteries vasodilation at the Adenosine A2 receptor in langendorff guinea pig heart preparation

EC50 (Adenosine receptor A1 [1]) [µM]	EC50 (Adenosine receptor A1 [2]) [µM]	-Log EC50 (Adenosine A2 receptor [3])	-Log EC50 (Adenosine A2 receptor [4])	SMILES
14.5	–	–	–	Nc1nc(OCCc2ccc(Cl)cc2)nc2c1ncn2[C@H]1O[C@@H](CO)[C@H](O)[C@@H]1O
–	20	7.21	–	Nc1nc(OCCCc2ccccc2)nc2c1ncn2[C@H]1O[C@@H](CO)[C@H](O)[C@@H]1O
16.2	–	–	8.59	COc1cccc(CCOc2nc(N)c3ncn(C4O[C@@H](CO)[C@H](O)[C@@H]4O)c3n2)c1 (stereo partly drawn)
–	8.32	–	–	Nc1nc(OCCc2cccc3ccccc23)nc2c1ncn2C1O[C@@H](CO)[C@H](O)[C@@H]1O (stereo partly drawn)
35.5	–	–	7.5	COc1ccccc1CCOc1nc(N)c2ncn(C3O[C@@H](CO)[C@H](O)[C@@H]3O)c2n1 (stereo partly drawn)
–	7.08	8.02	–	Nc1nc(OCCCCc2ccccc2)nc2c1ncn2C1O[C@@H](CO)[C@H](O)[C@@H]1O (stereo partly drawn)
42.7	–	–	8.31	COc1ccc(CCOc2nc(N)c3ncn(C4O[C@@H](CO)[C@H](O)[C@@H]4O)c3n2)cc1OC (stereo partly drawn)
–	46.8	6.38	–	Nc1nc(Oc2ccccc2)nc2c1ncn2C1O[C@@H](CO)[C@H](O)[C@@H]1O (stereo partly drawn)
–	35.5	8.58	–	Nc1nc(OCCc2ccccc2F)nc2c1ncn2C1O[C@@H](CO)[C@H](O)[C@@H]1O (stereo partly drawn)
–	25.7	9.06	–	Nc1nc(OCCc2ccc(F)cc2)nc2c1ncn2C1O[C@@H](CO)[C@H](O)[C@@H]1O (stereo partly drawn)
6.31	–	–	6.38	Nc1nc(OCc2ccccc2)nc2c1ncn2C1O[C@@H](CO)[C@H](O)[C@@H]1O (stereo partly drawn)

The next lines start with the compound.

SMILES	EC50 (Adenosine receptor A1 [1]) [µM]	EC50 (Adenosine receptor A1 [2]) [µM]	-Log EC50 (Adenosine A2 receptor [3])	-Log EC50 (Adenosine A2 receptor [4])
Nc1nc(OCCc2ccccc2Cl)nc2c1ncn2C1O[C@@H](CO)[C@H](O)[C@@H]1O (stereo partly drawn)	–	21.9	8.26	–
Nc1nc(OCCCCCc2ccccc2)nc2c1ncn2C1O[C@@H](CO)[C@H](O)[C@@H]1O (stereo partly drawn)	–	4.57	8.2	–
Cc1cccc(CCOc2nc(N)c3ncn(C4O[C@@H](CO)[C@H](O)[C@@H]4O)c3n2)c1 (stereo partly drawn)	12.9	–	–	8.8
COc1cc(CCOc2nc(N)c3ncn(C4O[C@@H](CO)[C@H](O)[C@@H]4O)c3n2)cc(OC)c1OC (stereo partly drawn)	46.8	–	–	7.66
Nc1nc(OCCc2c[nH]c3ccccc23)nc2c1ncn2C1O[C@@H](CO)[C@H](O)[C@@H]1O (stereo partly drawn)	–	14.1	8.01	–
Nc1nc(OCCc2ccsc2)nc2c1ncn2C1O[C@@H](CO)[C@H](O)[C@@H]1O (stereo partly drawn)	18.6	–	–	[…]
COc1ccc(CCOc2nc(N)c3ncn(C4O[C@@H](CO)[C@H](O)[C@@H]4O)c3n2)cc1 (stereo partly drawn)	–	19.5	8.85	–
Nc1nc(OCCc2cccs2)nc2c1ncn2C1O[C@@H](CO)[C@H](O)[C@@H]1O (stereo partly drawn)	11.7	–	–	8.43
Cc1ccc(CCOc2nc(N)c3ncn(C4O[C@@H](CO)[C@H](O)[C@@H]4O)c3n2)cc1 (stereo partly drawn)	7.41	–	–	9.72
Nc1nc(OCCc2cccc(Cl)c2)nc2c1ncn2C1O[C@@H](CO)[C@H](O)[C@@H]1O (stereo partly drawn)	16.2	–	–	8.52
Nc1nc(OCCc2ccc3ccccc3c2)nc2c1ncn2C1O[C@@H](CO)[C@H](O)[C@@H]1O (stereo partly drawn)	11.5	–	–	9.3
Nc1nc(OCCc2cccc(F)c2)nc2c1ncn2C1O[C@@H](CO)[C@H](O)[C@@H]1O (stereo partly drawn)	–	34.7	8.72	–
Nc1nc(OCCc2ccccc2)nc2c1ncn2C1O[C@@H](CO)[C@H](O)[C@@H]1O (stereo partly drawn)	–	20	8.55	–
Cc1ccccc1CCOc1nc(N)c2ncn(C3O[C@@H](CO)[C@H](O)[C@@H]3O)c2n1 (stereo partly drawn)	25.1	–	–	8.42
